From patent US12595269B2, “Morpholine-like monoamine releasers” (Solvonis Therapeutics Ireland Holdings Limited, priority 2022, dated 2026) come the findings set out here.

For orientation: fraction unbound means the share of the substance not bound to proteins or other matrix. A high value points to weak binding.

Data set [1] in a line: Brain tissue binding (BTB) by equilibrium dialysis, rat brain homogenate. Type of data set: in vitro ADME. Particulars: male, Sprague Dawley, pH 7.4. The method, then: Methods and Procedure: This study was performed in agreement with the previously described procedures to assure data integrity and adherence to GLP standards. Plasma protein binding and blood tissue binding of test items (0.5 μM) was determined using biological samples from male Sprague Dawley (SD) rats and humans. […] Dexamethasone was used as a control for lung tissue binding. Various biological samples were spiked with test compounds according to the methods that follow.
Preparation of brain homogenate samples: Test items were dissolved in DMSO (or an appropriate solvent) to give a 10 mM solution. Further dilutions, to obtain […] working solutions (WS), were then prepared using 50% acetonitrile in Milli Q water. These 100×WS were used to spike the brain homogenate to obtain a final concentration of 5 μM. From this initial spiking solution, control samples (n=3) referred to as T=0, were immediately extracted by protein precipitation.
An equilibrium dialysis method was performed to determine protein binding in the various biological samples described herein. Materials were prepared and methods were in accordance with the following procedures.
Membranes were prepared for use in the equilibrium dialysis experiment, by soaking in deionized water for at least 60 minutes. After this period, 20% of pure ethanol was added, and the membranes were left in this solution for at least 20 minutes. The membranes were then rinsed in Milli-Q water prior to use. […]
Dialysis buffer was prepared by dissolving Na2HPO4 8.69 g, KH2PO4 1.90 g, and NaCl 4.11 g in 1 L of MilliQ water, and adjusting the pH to 7.4 with H3PO4. […] In order to control the integrity of the membrane after the dialysis process, the presence of protein was assessed in the buffer compartment. […]
Samples were analyzed in a LC-MS/MS system using an analytical method to monitor the compound to internal standard peak area ratios as representative of the compound concentrations. Alternatively, samples were analyzed by RapidFire. […]
(In general: In equilibrium dialysis only unbound substance equilibrates across the membrane.)

Data set [2] is described as follows: In vitro intrinsic clearance in human liver microsomes. The class given is in vitro ADME. The note with it: pH 7.4, read-out: Intrinsic clearance (μL/min/mg protein) human. The method, then:
Methods and Procedure: The general procedure involves incubating test compounds with liver microsomes and subsequently detecting the compounds to determine intrinsic clearance. Clearance was estimated from the rate of depletion k (min−1), the volume of the incubation V (mL), and the amount of microsomal proteins in the incubation M (mg). Intrinsic clearance is defined by the following equation: Clint k*V/M.
Values for CLint are expressed as μL/min/mg protein. Verapamil and dextromethorphan were used as positive controls for CYP3A4 and CYP2D6 isoforms, respectively, to confirm metabolic activity.
Positive control and compounds for testing were dissolved in an appropriate solvent to obtain a 10 mM stock solution, which was diluted to achieve a final working solution, as detailed in the above table. Stock solutions were usually prepared at 10 mM DMSO, whereas working solutions were made by adding 5 μL 10 mM DMSO+995 μL MeOH. However, this concentration can be varied, e.g., when the test item is not soluble in the selected solvent.
Prior to experimentation, frozen liver microsomes were thawed in a water bath at 37° C. and kept on ice until use. The microsomes were then diluted with 50 mM potassium phosphate buffer pH 7.4 to a protein concentration of 0.56 mg/mL. To prepare test and control items in final incubation conditions, 5 μL of test compound and positive control working solutions were added to 445 μL of microsomes incubation mixture at 0.56 mg/mL and 50 μL of regenerating system.
As it relates to the automated incubation procedure for microsomes incubation, the following procedure was followed: • 1. 150 μL of quenching solution (ACN containing an appropriate Internal Standard, i.e. Rolipram and Diclofenac for positive and negative ion mode, respectively) was manually dispensed or dispensed by using the Hamilton system in each well of 96 deep well 1 mL plates. • 2. 800-1000 μL-aliquots of NADPH regenerating system were pre-warmed at 37° C. for 5 minutes. • 3. 5 μL of 50 μM test items and control were added to 445 μL of the 0.56 mg/mL microsomes solution, and the incubation mixture was pre-warmed in a 96 deep well 2 mL plate (incubation plate) at 37° C. for 5 minutes. • 4. […] Metabolic stability was calculated from the ratio of peak area of the remaining test or control item with internal standard versus time. • 9. […] The integrated peak areas of the test and control items at the selected time points were divided by the respective peak areas of the IS, and the percent of parent remaining was calculated by normalizing the peak area ratio of parent to IS at 0 min. Observed rate constant (kobs) for parent degradation was calculated by determining the slope of the line of the graph of the natural log of percentage parent remaining versus time of incubation. […]
(Liver microsomes are a subcellular fraction often used to study metabolism.)

Turning to `Clc1ccc([C@@]23CN[C@@H](CO2)C3)cc1Cl` (single isomer, unassigned) [518A], the fraction unbound at 5 h, 5 µM in data set [1] turned out to be 0.0127. For the same compound, in data set [2], the microsomal CLint at 0.5 µM amounted to 40 µL/min/mg.
Turning to `Clc1ccc(C23CNC(CO2)C3)cc1Cl` (stereo not shown) [522A, 1-(3,4-dichlorophenyl)-2-oxa-5-azabicyclo[2.2.1]heptane], in data set [1], the fraction unbound at 5 h, 5 µM was found to be 0.022. Moreover, the microsomal CLint at 0.5 µM in data set [2] came to 10 µL/min/mg.
With `Clc1ccc([C@]23CN[C@H](CO2)C3)cc1Cl` (single isomer, unassigned) [516A], the microsomal CLint at 0.5 µM in data set [2] amounted to 31 µL/min/mg.
As to `CNC(C)Cc1ccc2c(c1)OCO2` (stereo not shown) [MDMA, reference compound], in data set [1], the fraction unbound at 5 h, 5 µM was approximately 0.4. Further, in data set [2], the microsomal CLint at 0.5 µM was 30 µL/min/mg.
